Here are results for 24 compounds from patent US5622962A, “5α-reductase inhibitors” (priority 1995, dated 1997).

Each structure is given as a SMILES string.

For experiment [1], the target named is T1, Type I 5α-Reductase from Human Scalp (Homo sapiens, UniProt P18405).
T1 construct: Scalp punch biopsies from graft recipient sites were obtained from human hair transplant procedures; from tissue; host or cells: human scalp punch biopsies (hair transplant graft recipient sites), homogenate, 100,000×g pellet
T1 sequence (P18405 1-259): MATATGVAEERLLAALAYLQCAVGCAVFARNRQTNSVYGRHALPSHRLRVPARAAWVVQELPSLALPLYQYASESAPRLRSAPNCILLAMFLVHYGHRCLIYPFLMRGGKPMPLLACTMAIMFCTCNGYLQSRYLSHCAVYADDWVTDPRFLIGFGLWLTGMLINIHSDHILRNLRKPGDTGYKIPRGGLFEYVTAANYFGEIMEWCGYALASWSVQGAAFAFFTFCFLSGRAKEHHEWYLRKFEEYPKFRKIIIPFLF
In words: Human Type I 5α-reductase assay (conversion of [3H]-testosterone to 5α-reduced metabolites). Particulars: pH 7.5, 0.3 μM; 50 nM [3H]-testosterone, pH 7.5, 25°, 180 min; compared to control reaction mixtures; read-out: percent inhibition of Type I AR. In kind it is biochemical.

The target of experiment [2] is T2, Type II 5α-Reductase from Human Prostate (Homo sapiens, UniProt P31213).
T2 construct: The same procedure as above was used for preparations using tissue from prostate surgery; from tissue; host or cells: human prostate tissue from surgery, homogenate, 100,000×g pellet
T2 sequence (P31213 1-254): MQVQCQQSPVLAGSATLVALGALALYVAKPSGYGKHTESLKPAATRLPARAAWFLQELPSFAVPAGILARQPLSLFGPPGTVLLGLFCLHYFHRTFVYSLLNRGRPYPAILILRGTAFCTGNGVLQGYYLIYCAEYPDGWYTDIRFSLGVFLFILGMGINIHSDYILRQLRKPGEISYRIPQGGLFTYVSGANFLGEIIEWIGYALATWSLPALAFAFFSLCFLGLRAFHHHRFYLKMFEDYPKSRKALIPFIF
The experiment can be described thus: Human Type II 5α-reductase assay (conversion of [3H]-testosterone to 5α-reduced metabolites). In kind it is biochemical. Particulars: pH 5.5, 0.3 μM; sodium acetate pH 5.5, 25°, 30 min; compared to control reaction mixtures; read-out: percent inhibition of Type II AR.

In general, inhibition refers to the relative decrease from the control value, in per cent. On to `CN1C(=O)CC[C@]2(C)c3ccc(-c4ccc5ncccc5c4)cc3CC[C@@H]12` [Example 244, (+)-(4aR)-(10bR)-4-methyl-8-(6-quinolinyl)-10b-methyl-1,2,3,4,4a,5,6,10b-octahydrobenzo[f]quinolin-3-one], for which the inhibition at 0.3 µM was found to be 51% in experiment [1] and 32% in experiment [2].
On to `CN1C(=O)CC[C@]2(C)c3ccc(-c4ccc5c6c(cccc46)C(=O)N(C4CCN(Cc6ccccc6)CC4)C5=O)cc3CC[C@@H]12` [Example 246, (+)-(4aR)-(10bR)-4-methyl-8-[2-(4-[N-benzyl]piperidinyl)-1H-benzo<de>isoquinolin-6-yl-1,3-(2H)dione]-10b-methyl-1,2,3,4,4a,5,6,10b-octahydrobenzo[f]quinolin-3-one], for which the values for the inhibition at 0.3 µM in experiment [1] and in experiment [2] were 92% and 45%, respectively.
The corresponding values for `CN1C(=O)CC[C@]2(C)c3ccc(-c4ccc5ccccc5n4)cc3CC[C@@H]12` [Example 247, (+)-(4aR)-(10bR)-4-methyl-8-(2-quinolinyl)-10b-methyl-1,2,3,4,4a,5,6,10b-octahydrobenzo[f]quinolin-3-one] are 60% and 32%.
Taken in the same sequence, the figures for `CN1C(=O)CC[C@]2(C)c3ccc(-c4ccc5oc(=O)ccc5c4)cc3CC[C@@H]12` [Example 248, (+)-(4aR)-(10bR)-4-methyl-8-(2-oxo-1-benzopyran-6-yl)-10b-methyl-1,2,3,4,4a,5,6,10b-octahydrobenzo[f]quinolin-3-one] were 54% and 22%.
Taken in the same sequence, the figures for `CN1C(=O)CC[C@]2(C)c3ccc(-c4ccc5ncsc5c4)cc3CC[C@@H]12` [Example 249, (+)-(4aR)-(10bR)-4-methyl-8-(6-benzothiazolyl)-10b-methyl-1,2,3,4,4a,5,6,10b-octahydrobenzo[f]quinolin-3-one] were 69% and 24%.
Regarding `CN1C(=O)CC[C@]2(C)c3ccc(-c4ccc5c(ccn5C(=O)OC(C)(C)C)c4)cc3CC[C@@H]12` [Example 250, (+)-(4aR)-(10bR)-4-methyl-8-(1-[t-butoxycarbonyl]-5-indolyl)-10b-methyl-1,2,3,4,4a,5,6,10b-octahydrobenzo[f]quinolin-3-one], the inhibition at 0.3 µM in experiment [1] turned out to be 83%; in experiment [2], 1%.
`CN1C(=O)CC[C@]2(C)c3ccc(-c4nc5ccccc5o4)cc3CC[C@@H]12` [Example 251, (+)-(4aR)-(10bR)-4-methyl-8-(2-benzoxazolyl)-10b-methyl-1,2,3,4,4a,5,6,10b-octahydrobenzo[f]quinolin-3-one]: the inhibition at 0.3 µM in experiment [1] worked out at 69%; in experiment [2], 36%.
With `CN1C(=O)CC[C@]2(C)c3ccc(-c4nc5ccccc5s4)cc3CC[C@@H]12` [Example 252, (+)-(4aR)-(10bR)-4-methyl-8-(2-benzothiazolyl)-10b-methyl-1,2,3,4,4a,5,6,10b-octahydrobenzo[f]quinolin-3-one], the inhibition at 0.3 µM in experiment [1] amounted to 89%; in experiment [2] it was 54%.
The corresponding values for `CN1C(=O)CC[C@]2(C)c3ccc(-c4cnccn4)cc3CC[C@@H]12` [Example 253, (+)-(4aR)-(10bR)-4-methyl-8-(2-pyrazinyl)-10b-methyl-1,2,3,4,4a,5,6,10b-octahydrobenzo[f]quinolin-3-one] are 5% and 32%.
Regarding `CN1C(=O)CC[C@]2(C)c3ccc(-c4ncccn4)cc3CC[C@@H]12` [Example 254, (+)-(4aR)-(10bR)-4-methyl-8-(2-pyrimidinyl)-10b-methyl-1,2,3,4,4a,5,6,10b-octahydrobenzo[f]quinolin-3-one], the inhibition at 0.3 µM turned out to be 37% in experiment [1] and 28% in experiment [2].
Consider `CN1C(=O)CC[C@]2(C)c3ccc(-c4cnc5ccccc5n4)cc3CC[C@@H]12` [Example 255, (+)-(4aR)-(10bR)-4-methyl-8-(2-quinoxalinyl)-10b-methyl-1,2,3,4,4a,5,6,10b-octahydrobenzo[f]quinolin-3-one], for which the inhibition at 0.3 µM in experiment [1] was found to be 71%; in experiment [2], 37%.
The corresponding values for `CN1C(=O)CC[C@]2(C)c3ccc(-c4nc5ccccc5[nH]4)cc3CC[C@@H]12` [Example 256, (+)-(4aR)-(10bR)-4-methyl-8-(2-benzimidazolyl)-10b-methyl-1,2,3,4,4a,5,6,10b-octahydrobenzo[f]quinolin-3-one] are 38% and 18%.
Taken in the same sequence, the figures for `CN1C(=O)CC[C@]2(C)c3ccc(-c4n[nH]c5ccccc45)cc3CC[C@@H]12` [Example 257, (+)-(4aR)-(10bR)-4-methyl-8-(3-indazolyl)-10b-methyl-1,2,3,4,4a,5,6,10b-octahydrobenzo[f]quinolin-3-one] were 36% and 58%.
Taken in the same sequence, the figures for `CN1C(=O)CC[C@]2(C)c3ccc(-c4nnnn4-c4ccccc4)cc3CC[C@@H]12` [Example 258, (+)-(4aR)-(10bR)-4-methyl-8-(2-[3-phenyl]tetrazolyl)-10b-methyl-1,2,3,4,4a,5,6,10b-octahydrobenzo[f]quinolin-3-one] were 27% and 16%.
Regarding `CN1C(=O)CC[C@]2(C)c3ccc(-c4ccc(C(F)(F)F)cn4)cc3CC[C@@H]12` [Example 259, (+)-(4aR)-(10bR)-4-methyl-8-(2-[5-trifluoromethyl]pyridinyl)-10b-methyl-1,2,3,4,4a,5,6,10b-octahydrobenzo[f]quinolin-3-one], the values for the inhibition at 0.3 µM in experiment [1] and in experiment [2] were 31% and 14%, respectively.
Regarding `CN1C(=O)CC[C@]2(C)c3ccc(-c4nc5c(ccc6ccccc65)s4)cc3CC[C@@H]12` [Example 260, (+)-(4aR)-(10bR)-4-methyl-8-(2-naphtho<1,2-d>thiazolyl)-10b-methyl-1,2,3,4,4a,5,6,10b-octahydrobenzo[f]quinolin-3-one], the values for the inhibition at 0.3 µM in experiment [1] and in experiment [2] were 84% and 40%, respectively.
The corresponding values for `CN1C(=O)CC[C@]2(C)c3ccc(-c4nc5c(F)cccc5s4)cc3CC[C@@H]12` [Example 261, (+)-(4aR)-(10bR)-4-methyl-8-(2-[4-fluoro]benzothiazolyl)-10b-methyl-1,2,3,4,4a,5,6,10b-octahydrobenzo[f]quinolin-3-one] are 86% and 49%.
In the case of `CN1C(=O)CC[C@]2(C)c3ccc(-c4nc5c(Cl)cccc5s4)cc3CC[C@@H]12` [Example 262, (+)-(4aR)-(10bR)-4-methyl-8-(2-[4-chloro]benzothiazolyl)-10b-methyl-1,2,3,4,4a,5,6,10b-octahydrobenzo[f]quinolin-3-one], the inhibition at 0.3 µM in experiment [1] was found to be 91%; in experiment [2], 41%.
`CN1C(=O)CC[C@]2(C)c3ccc(-c4nc5cc(Cl)c(Cl)cc5s4)cc3CC[C@@H]12` [Example 263, (+)-(4aR)-(10bR)-4-methyl-8-(2-[5,6-dichloro]benzothiazolyl)-10b-methyl-1,2,3,4,4a,5,6,10b-octahydrobenzo[f]quinolin-3-one]: the inhibition at 0.3 µM was 56% in experiment [1] and 47% in experiment [2].
Turning to `CC(C)c1cccc2sc(-c3ccc4c(c3)CC[C@H]3N(C)C(=O)CC[C@]43C)nc12` [Example 264, (+)-(4aR)-(10bR)-4-methyl-8-(2-[4-isopropyl]benzothiazolyl)-10b-methyl-1,2,3,4,4a,5,6,10b-octahydrobenzo[f]quinolin-3-one], the inhibition at 0.3 µM in experiment [1] was 90%; in experiment [2], 45%.
On to `CN1C(=O)CC[C@]2(C)c3ccc(-c4nc5ccc(Cl)cc5s4)cc3CC[C@@H]12` [Example 265, (+)-(4aR)-(10bR)-4-methyl-8-(2-[6-chloro]benzothiazolyl)-10b-methyl-1,2,3,4,4a,5,6,10b-octahydrobenzo[f]quinolin-3-one], for which the inhibition at 0.3 µM in experiment [1] was found to be 78%; in experiment [2] it was 40%.
As for `CN1C(=O)CC[C@]2(C)c3ccc(Oc4ccc5ccccc5n4)cc3CC[C@@H]12` [Example 266, (+)-(4aR)-(10bR)-4-methyl-8-(2-quinolinyloxy)-10b-methyl-1,2,3,4,4a,5,6,10b-octahydrobenzo[f]quinolin-3-one], the inhibition at 0.3 µM in experiment [1] was 57%; in experiment [2], 44%.
Take `CN1C(=O)CC[C@]2(C)c3ccc(NC(=O)c4ccccc4)cc3CC[C@@H]12` [Example 267, (+)-(4aR)-(10bR)-4,10b-dimethyl-8-benzoylamino-1,2,3,4,4a,-5,6,10b-octahydrobenzo[f]quinolin-3-one]: the inhibition at 0.3 µM in experiment [1] is 34%; in experiment [2], 51%.
As to `CN1C(=O)CC[C@]2(C)c3ccc(NC(=O)c4ccc([N+](=O)[O-])cc4)cc3CC[C@@H]12` [Example 269, (4aR)-(10bR)-4,10b-dimethyl-8-(4-nitrobenzoylamino)-1,2,3,4,4a,5,6,10b-octahydrobenzo[f]quinolin-3-one], the results for the inhibition at 0.3 µM in experiment [1] and in experiment [2] were 8% and 17%, respectively.
